“Also recorded” adds a separate entry of the source. Read-outs that look alike come from different tables or passages of the source.
What was measured:
[1] = test system: myeloid or the lymphoblastic leukemia cells; assay: Serotonin treatment of leukemia cells, proliferation or survival; format: cell-based
Method: (§1) EL4 cells and WEH-3B cells, as described in Example 2, were treated with either LP-533401 or serotonin LP-533401 treatments were performed at 0.1 to 1-fold the amount equivalent to the LP-533401 serum concentration in mice treated with this compound. Serotonin was given at concentrations ranging from 25 to 100 μM, doses at which it affects the proliferation of cells expressing serotonin receptors (Kode et al. (2012); Yadav et al. (2008) Serafeim et al. (2003)).

[2] = test system: EL4 cells; assay: Injection of EL4 cells pre-treated with LP-533401 or serotonin into syngeneic mice (Example 13); format: in vivo; conditions: cells treated before injection; LP-533401 0.1 to 1-fold serum concentration, serotonin 25 to 100 μM
Method: as §1
EL4 cells treated with LP-533401 or serotonin were then injected into syngeneic mice as described in Example 2 to monitor leukemia engraftment, as commonly described for evaluating potential direct effects of compounds on leukemia cells (Moellering et al. (2009)).

[3] = test system: serotonin; conditions: six consecutive doses, cited from earlier work

Row | SMILES | proliferation or survival of leukemia cells [1] | leukemia outcome (burden and lethality) after injection of pre-treated EL4 cells [2] | serotonin levels in the small intestine lowered ([3]; 30 mg/kg twice per day) | serotonin levels in the small intestine lowered ([3]; 90 mg/kg twice per day) | brain-derived serotonin ([3]; 30 or 90 mg/kg twice per day)
1 | NCCc1c[nH]c2ccc(O)cc12 [serotonin, 5-hydroxytryptamine] | no effect | neither implantation of serotonin-treated leukemia cells affected leukemia progression; also recorded: neither of the two treatments altered leukemia outcome | – | – | –
2 | CCOC(=O)[C@@H](N)Cc1ccc(-c2cc(OC(c3ccc(-c4cccc(F)c4)cc3)C(F)(F)F)nc(N)n2)cc1 (some centres unmarked) [LP-615819] | – | – | 55% | 70% | unchanged
